In patent US10329270B2, “Heteroaryl compounds as BTK inhibitors and uses thereof” (Merck Patent GmbH, priority 2013, dated 2019) one finds IC50 data, which are given here for 15 molecules.

Broadly, the IC50 is the concentration at which inhibition is half-maximal.

Where only a bound is given, the exact number is not on record here.

The target in one assay is T1, full-length human BTK (Homo sapiens, UniProt Q06187).
T1 construct: 2.5× stocks of full-length human BTK (08-080); purchased CarnaBio USA, Inc., Natick, Mass; 08-080
Kind of assay: Assay A: BTK IC50 Enzyme Assay (microfluidic off-chip mobility shift kinase assay). Particulars: full-length human BTK, kinKDR peptide substrate, incubated 90 min at 27 C; read-out: Assay A (Time Dependent BTK Enzyme Assay IC50). The assay is classed as biochemical. The method, boiled down: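 Off-chip microfluidic mobility shift assay with full-length human BTK; phosphorylated and unphosphorylated peptide substrate were separated by charge/mass on a LabChip 3000.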

A further assay has as its system PBMC. Kind of assay: Assay B: Time Dependent PMBC IC50 Assay. Format: cell-based. How it is done:
Assay B: Time Dependent PMBC IC50 Assay
Compounds described by embodiments of the present invention were assayed using a time dependent PMBC assay. The data from the same is recorded in Table 2 within the column labeled: “Time Dependent PBMC Assay IC50.” These IC50 values are reported in ranges wherein: I<1 uM and II>1 uM.

The next assay concerns the target T2, BTK in human whole blood (Homo sapiens, UniProt Q06187).
T2 construct: endogenous in cells; host or cells: human whole blood
Kind of assay: Assay C: Time Dependent Human Whole Blood IC50 Assay. Conditions: read-out: Assay C (Time Dependent Human Whole Blood BTK Enzyme Assay IC50). Format: cell-based. The procedure: Assay C: Time Dependent Human Whole Blood IC50 Assay
Compounds described by embodiments of the present invention were assayed using a human whole blood assay. The data from the same is recorded in Table 2 within the column labeled: “Time Dependent Human Whole Blood BTK Enzyme Assay IC50”.

T1 sequence (Q06187 whole entry): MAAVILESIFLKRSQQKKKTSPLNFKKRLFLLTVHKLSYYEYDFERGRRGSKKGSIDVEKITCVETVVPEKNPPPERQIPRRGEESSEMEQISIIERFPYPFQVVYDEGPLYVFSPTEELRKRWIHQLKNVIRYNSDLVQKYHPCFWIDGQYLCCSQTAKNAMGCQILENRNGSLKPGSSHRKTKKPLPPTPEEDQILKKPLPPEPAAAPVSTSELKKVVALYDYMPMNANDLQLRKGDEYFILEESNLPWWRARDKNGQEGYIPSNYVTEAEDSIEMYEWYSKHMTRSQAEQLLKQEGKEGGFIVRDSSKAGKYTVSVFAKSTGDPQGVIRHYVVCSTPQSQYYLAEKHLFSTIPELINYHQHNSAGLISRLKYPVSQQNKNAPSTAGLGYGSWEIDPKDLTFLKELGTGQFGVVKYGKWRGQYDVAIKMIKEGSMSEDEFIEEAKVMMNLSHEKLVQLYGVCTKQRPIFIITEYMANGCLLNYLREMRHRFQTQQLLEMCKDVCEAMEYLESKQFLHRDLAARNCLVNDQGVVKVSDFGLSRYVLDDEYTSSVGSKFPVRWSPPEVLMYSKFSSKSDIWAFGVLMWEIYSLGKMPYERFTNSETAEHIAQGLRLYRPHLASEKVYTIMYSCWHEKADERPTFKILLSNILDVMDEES
T2 sequence (Q06187 whole entry): as above

In the case of `C=CC(=O)N[C@H]1CCN(c2nc(Nc3ccc(C(=O)NC(C)(C)C)cc3)c(F)cc2C(N)=O)C1` [Compound 3, (S)-2-(3-acrylamidopyrrolidin-1-yl)-6-((4-(tert-butylcarbamoyl)phenyl)amino)-5-fluoronicotinamide], the IC50 at full-length human BTK, in the assay on PBMC and at BTK in human whole blood was less than 100 nM each time.

With `C=CC(=O)N1C[C@@H]2C[C@H]1CN2c1ccc(C(N)=O)c(Nc2ccc(CCN3CCCC3)cc2)n1` [Compound 9, 6-((1S,4S)-5-Acryloyl-2,5-diaza-bicyclo[2.2.1]hept-2-yl)-2-[4-(2-pyrrolidin-1-yl-ethyl)-phenylamino]-nicotinamide], the IC50 at full-length human BTK, with PBMC and on BTK in human whole blood was less than 100 nM in each case.

In the case of `C=CC(=O)N[C@H]1CCN(c2ccc(C(N)=O)c(Nc3ccc(C(=O)N4CCN(C)CC4)cc3)n2)C1` [Compound 11, (S)-6-(3-acrylamidopyrrolidin-1-yl)-2-((4-(4-methylpiperazine-1 carbonyl)phenyl)amino)nicotinamide], the IC50 at full-length human BTK is less than 100 nM; with PBMC, less than 100 nM; on BTK in human whole blood it was 100 to 1000 nM.

In the case of `C=CC(=O)N[C@H]1CCN(c2ccc(C(N)=O)c(Nc3ccc(N4C[C@@H](C)O[C@@H](C)C4)nc3)n2)C1` [Compound 37, 6-((S)-3-Acryloylamino-pyrrolidin-1-yl)-2-[6-(cis-2,6-dimethyl-morpholin-4-yl)-pyridin-3-ylamino]-nicotinamide], the results for the IC50 at full-length human BTK, with PBMC and on BTK in human whole blood were less than 100 nM, less than 100 nM and 100 to 1000 nM, respectively.

For the molecule `C=CC(=O)N[C@H]1CCN(c2ccc(C(N)=O)c(Nc3ccc(OC)cc3)n2)C1` [Compound 45, 6-((S)-3-Acryloylamino-pyrrolidin-1-yl)-2-(4-methoxy-phenylamino)-nicotinamide], the values for the IC50 on full-length human BTK and at BTK in human whole blood were less than 100 nM and 100 to 1000 nM, respectively.

As to `C=CC(=O)N[C@H]1CCN(c2ccc(C(N)=O)c(Nc3ccc(F)nc3)n2)C1` [Compound 46, 6-((S)-3-Acryloylamino-pyrrolidin-1-yl)-2-(6-fluoro-pyridin-3-ylamino)-nicotinamide], the IC50 is less than 100 nM at full-length human BTK, less than 100 nM with PBMC and 1000 to 5000 nM on BTK in human whole blood.

Consider `C=CC(=O)N1C2C=C(c3ccc(C(N)=O)c(Oc4ccc(Oc5ccccc5)cc4)n3)CC1CC2` (stereo not shown) [Compound 65, 6-(8-Acryloyl-8-aza-bicyclo[3.2.1]oct-2-en-3-yl)-2-(4-phenoxy-phenoxy)-nicotinamide], for which the IC50 is less than 100 nM on full-length human BTK, less than 100 nM in the assay on PBMC and 100 to 1000 nM on BTK in human whole blood.

For the molecule `C=CC(=O)N1CC=C(c2ccc(C(N)=O)c(Oc3ccc(Oc4ccccc4)cc3)n2)CC1` [Compound 69, 1′-acryloyl-6-(4-phenoxyphenoxy)-1′,2′,3′,6′-tetrahydro-[2,4′-bipyridine]-5-carboxamide], the IC50 at full-length human BTK was less than 100 nM; in the assay with PBMC, less than 100 nM; at BTK in human whole blood, 100 to 1000 nM.

With `C=CC(=O)N[C@H]1CCN(c2ncc(C(N)=O)c(Nc3ccc(C(=O)NC(C)(C)C)cc3)n2)C1` [Compound 139, (S)-2-(3-acrylamidopyrrolidin-1-yl)-4-((4-(tert-butylcarbamoyl)phenyl)amino)pyrimidine-5-carboxamide], the IC50 on full-length human BTK, with PBMC and on BTK in human whole blood was less than 100 nM throughout.

Turning to `C=CC(=O)NC1CN(c2ncc(C(N)=O)c(Oc3ccc(Oc4ccccc4)cc3)n2)C1` [Compound 174, 2-(3-Acryloylamino-azetidin-1-yl)-4-(4-phenoxy-phenoxy)-pyrimidine-5-carboxylic acid amide], the IC50 is less than 100 nM on full-length human BTK, less than 100 nM with PBMC and 100 to 1000 nM at BTK in human whole blood.

Turning to `C=CC(=O)N[C@H]1CCN(c2nc(Nc3ccc(N4CCC(F)(F)CC4)cc3)c(C(N)=O)cc2F)C1` [Compound 180, 6-((S)-3-Acryloylamino-pyrrolidin-1-yl)-2-[4-(4,4-difluoro-piperidin-1-yl)-phenylamino]-5-fluoro-nicotinamide], the results for the IC50 on full-length human BTK, with PBMC and on BTK in human whole blood were less than 100 nM, less than 100 nM and 100 to 1000 nM, respectively.

In the case of `C=CC(=O)N1CCC(c2ccc(C(N)=O)c(Nc3ccc(C(=O)N4CCCC(NC(=O)CCOCCOCCOCCOCCNC(=O)CCCC[C@@H]5SCC6NC(=O)NC65)C4)cc3)n2)CC1` (stereo partly drawn) [Compound 191, 6-(1-acryloylpiperidin-4-yl)-2-((4-(3-(17-oxo-21-((4S)-2-oxohexahydro-1H-thieno[3,4-d]imidazol-4-yl)-4,7,10,13-tetraoxa-16-azahenicosanamido)piperidine-1-carbonyl)phenyl)amino)nicotinamide], the figures for the IC50 at full-length human BTK and with PBMC were less than 100 nM and more than 5000 nM, respectively.

Consider `N#CN[C@@H]1CCCN(c2ccc(C(N)=O)c(Nc3ccc(C(=O)N4CCOCC4)cc3)n2)C1` [Compound 227, (R)-3-Cyanoamino-6′-[4-(morpholine-4-carbonyl)-phenylamino]-3,4,5,6-tetrahydro-2H-[1,2′]bipyridinyl-5′-carboxylic acid amide], for which the results for the IC50 on full-length human BTK and in the assay with PBMC were 100 to 1000 nM and more than 5000 nM, respectively.

As to `N#CN1CCCC(c2cnc(Oc3ccc(Oc4ccccc4)cc3)c(C(N)=O)c2)C1` (stereo not shown) [Compound 236, 1′-Cyano-6-(4-phenoxy-phenoxy)-1′,2′,3′,4′,5′,6′-hexahydro-[3,3′]bipyridinyl-5-carboxylic acid amide], the IC50 on full-length human BTK is less than 100 nM; with PBMC, 100 to 1000 nM.

With `N#CN1CCC[C@H](c2cnc(Oc3ccc(Oc4ccccc4)cc3)c(C(N)=O)c2)C1` [Compound 241, (R)-5-(1-cyanopiperidin-3-yl)-2-(4-phenoxyphenoxy)nicotinamide], the IC50 is less than 100 nM at full-length human BTK and 100 to 1000 nM in the assay with PBMC.
